# Measured values as given in article PMC4191062, “Development of αGlcN(1↔1)αMan-Based Lipid A Mimetics as a Novel Class of Potent Toll-like Receptor 4 Agonists” (Journal of Medicinal Chemistry, 2014).
# System: bone marrow-derived macrophages (BMDM)
# Assay: TNF-α and IL-6 production in mouse bone marrow-derived macrophages (ELISA)
# Type: cell-based, C57BL/6J mice
# Details: mBMDM, 1 nM (1.8 ng/mL), 16 h
# Method: The ability of Lipid A mimetics 1–3 to induce the production of TNF-α and IL-6 from bone marrow-derived macrophages (BMDM) in mice was subsequently examined and compared to that of synthetic E. coli Lipid A and E. coli MPLA, which are reliable positive controls due to their chemical purity and homogeneity (Figure 6). […] Likewise, 1 nM (1.8 ng/mL) of 1 or 2 triggered the release of a 3-fold higher amount of IL-6 (1500 pg/mL) compared to Lipid A (500 pg/mL).
# Bone-marrow-derived microphages (BMDMs) were isolated and differentiated from the bone marrow of C57BL/6J mice. The bone marrow was flushed from femur and fibia with RPMI media. The erythrocytes were lysed with 0.88% ammonium chloride, 15 min at 37 °C. A single-cell suspension of the bone marrow cells was then seeded in cell culture flasks at a concentration of 1 × 10^6 cells/mL in RPMI supplemented with 20% FBS and 40 ng/mL recombinant M-CSF. The cell culture medium was changed on day 3. On day 6, the differentiated cells were trypsinized, counted, and seeded in 24-well plates at a concentration of 1 × 10^6 cells/mL in RPMI supplemented with 10% FBS. After 24 h, the cells were stimulated with Lipid A mimetics 1–3 and with synthetic E. coli Lipid A/MPLA (E. coli O111:B4 LPS was used as positive control) for 16 h. The nanomolar concentrations of 1–3 were calculated according to the MW of the synthetic compounds. The supernatants were then tested for cytokines using Ready-Set-Go ELISA kits (eBioscience).
structure (smiles),measurement,value
CCCCCCCCCCCCCC(=O)O[C@H](CCCCCCCCCCC)CC(=O)N[C@H]1[C@H](OC[C@H]2O[C@H](OP(=O)(O)O)[C@H](NC(=O)C[C@H](O)CCCCCCCCCCC)[C@@H](OC(=O)C[C@H](O)CCCCCCCCCCC)[C@@H]2O)O[C@H](CO)[C@@H](OP(=O)(O)O)[C@@H]1OC(=O)C[C@@H](CCCCCCCCCCC)OC(=O)CCCCCCCCCCCCC [Lipid A],IL-6 release,500 pg/mL
